Assay results published in publication PMC4142139 (European Journal of Drug Metabolism and Pharmacokinetics, 2014).

T1: OATP1B1*5 (Homo sapiens, UniProt Q9Y6L6, V174A)
T1 sequence (Q9Y6L6 1-691 V174A): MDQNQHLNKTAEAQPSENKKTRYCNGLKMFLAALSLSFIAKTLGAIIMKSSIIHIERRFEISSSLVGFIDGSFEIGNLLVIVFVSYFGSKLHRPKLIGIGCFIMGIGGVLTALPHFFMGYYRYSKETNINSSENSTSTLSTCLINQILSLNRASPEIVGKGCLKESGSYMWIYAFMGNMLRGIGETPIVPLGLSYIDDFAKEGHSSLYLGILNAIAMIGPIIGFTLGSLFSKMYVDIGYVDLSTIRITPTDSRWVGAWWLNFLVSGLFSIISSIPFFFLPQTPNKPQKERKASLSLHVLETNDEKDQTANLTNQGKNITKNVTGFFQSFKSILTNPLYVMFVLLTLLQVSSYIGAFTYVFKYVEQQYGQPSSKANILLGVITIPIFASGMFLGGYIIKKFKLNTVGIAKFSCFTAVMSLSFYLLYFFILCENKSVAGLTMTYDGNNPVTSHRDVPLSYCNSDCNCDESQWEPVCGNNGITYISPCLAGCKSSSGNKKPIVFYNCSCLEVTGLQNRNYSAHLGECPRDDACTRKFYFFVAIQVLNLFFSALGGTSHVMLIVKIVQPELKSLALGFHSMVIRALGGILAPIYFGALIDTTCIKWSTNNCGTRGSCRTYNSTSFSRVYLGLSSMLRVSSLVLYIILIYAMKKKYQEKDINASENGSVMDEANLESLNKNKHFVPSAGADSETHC

T2: OATP1B1*1a (Homo sapiens, UniProt Q9Y6L6)
T2 sequence (Q9Y6L6 1-691): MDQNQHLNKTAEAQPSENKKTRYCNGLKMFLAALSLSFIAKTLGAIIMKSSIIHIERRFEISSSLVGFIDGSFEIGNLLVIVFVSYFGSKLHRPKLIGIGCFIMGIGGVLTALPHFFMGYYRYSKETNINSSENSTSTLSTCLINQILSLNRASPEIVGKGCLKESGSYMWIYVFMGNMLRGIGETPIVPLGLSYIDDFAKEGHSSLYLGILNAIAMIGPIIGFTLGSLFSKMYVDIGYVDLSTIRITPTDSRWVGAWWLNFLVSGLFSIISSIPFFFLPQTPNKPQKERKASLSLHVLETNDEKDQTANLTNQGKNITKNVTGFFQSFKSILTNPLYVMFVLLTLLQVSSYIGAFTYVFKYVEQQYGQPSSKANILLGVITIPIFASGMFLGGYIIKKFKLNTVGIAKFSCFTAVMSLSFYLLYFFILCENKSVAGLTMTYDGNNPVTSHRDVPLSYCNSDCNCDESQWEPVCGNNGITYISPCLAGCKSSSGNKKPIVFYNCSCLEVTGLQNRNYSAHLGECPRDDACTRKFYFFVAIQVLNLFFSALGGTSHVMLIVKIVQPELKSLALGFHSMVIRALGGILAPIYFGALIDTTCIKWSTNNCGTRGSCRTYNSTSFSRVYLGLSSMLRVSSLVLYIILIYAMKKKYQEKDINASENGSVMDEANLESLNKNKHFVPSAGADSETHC

B1: OATP1B1*1a (Homo sapiens) (protein)
chain: MDQNQHLNKTAEAQPSENKKTRYCNGLKMFLAALSLSFIAKTLGAIIMKSSIIHIERRFEISSSLVGFIDGSFEIGNLLVIVFVSYFGSKLHRPKLIGIGCFIMGIGGVLTALPHFFMGYYRYSKETNINSSENSTSTLSTCLINQILSLNRASPEIVGKGCLKESGSYMWIYVFMGNMLRGIGETPIVPLGLSYIDDFAKEGHSSLYLGILNAIAMIGPIIGFTLGSLFSKMYVDIGYVDLSTIRITPTDSRWVGAWWLNFLVSGLFSIISSIPFFFLPQTPNKPQKERKASLSLHVLETNDEKDQTANLTNQGKNITKNVTGFFQSFKSILTNPLYVMFVLLTLLQVSSYIGAFTYVFKYVEQQYGQPSSKANILLGVITIPIFASGMFLGGYIIKKFKLNTVGIAKFSCFTAVMSLSFYLLYFFILCENKSVAGLTMTYDGNNPVTSHRDVPLSYCNSDCNCDESQWEPVCGNNGITYISPCLAGCKSSSGNKKPIVFYNCSCLEVTGLQNRNYSAHLGECPRDDACTRKFYFFVAIQVLNLFFSALGGTSHVMLIVKIVQPELKSLALGFHSMVIRALGGILAPIYFGALIDTTCIKWSTNNCGTRGSCRTYNSTSFSRVYLGLSSMLRVSSLVLYIILIYAMKKKYQEKDINASENGSVMDEANLESLNKNKHFVPSAGADSETHC
B2: OATP1B1*5 (Homo sapiens; V174A) (protein)
chain: MDQNQHLNKTAEAQPSENKKTRYCNGLKMFLAALSLSFIAKTLGAIIMKSSIIHIERRFEISSSLVGFIDGSFEIGNLLVIVFVSYFGSKLHRPKLIGIGCFIMGIGGVLTALPHFFMGYYRYSKETNINSSENSTSTLSTCLINQILSLNRASPEIVGKGCLKESGSYMWIYAFMGNMLRGIGETPIVPLGLSYIDDFAKEGHSSLYLGILNAIAMIGPIIGFTLGSLFSKMYVDIGYVDLSTIRITPTDSRWVGAWWLNFLVSGLFSIISSIPFFFLPQTPNKPQKERKASLSLHVLETNDEKDQTANLTNQGKNITKNVTGFFQSFKSILTNPLYVMFVLLTLLQVSSYIGAFTYVFKYVEQQYGQPSSKANILLGVITIPIFASGMFLGGYIIKKFKLNTVGIAKFSCFTAVMSLSFYLLYFFILCENKSVAGLTMTYDGNNPVTSHRDVPLSYCNSDCNCDESQWEPVCGNNGITYISPCLAGCKSSSGNKKPIVFYNCSCLEVTGLQNRNYSAHLGECPRDDACTRKFYFFVAIQVLNLFFSALGGTSHVMLIVKIVQPELKSLALGFHSMVIRALGGILAPIYFGALIDTTCIKWSTNNCGTRGSCRTYNSTSFSRVYLGLSSMLRVSSLVLYIILIYAMKKKYQEKDINASENGSVMDEANLESLNKNKHFVPSAGADSETHC

Legend:
[1] = target: T1, OATP1B1*5; test: inhibition of rosuvastatin uptake in OATP1B1*5-HEK293T cells, LC/MS; assay type: cell-based
[2] = target: T2, OATP1B1*1a; test: inhibition of rosuvastatin uptake in OATP1B1*1a-HEK293T cells, LC/MS; assay type: cell-based
[3] = substrate: CC(C)c1nc(N(C)S(C)(=O)=O)nc(-c2ccc(F)cc2)c1/C=C/[C@@H](O)C[C@@H](O)CC(=O)O; test: concentration-dependent uptake kinetics; assay type: cell-based, Homo sapiens

Molecule	IC50 [1]	IC50 [2]	Km [3]
C[C@H]1[C@H](C)CC[C@]2(C(=O)O)CC[C@]3(C)C(=CC[C@@H]4[C@@]5(C)CC[C@H](O)C(C)(C)[C@@H]5CC[C@]43C)[C@H]12 [UA, 3b-hydroxy-urs-12-en-28-oic-acid]	6.07 ± 0.57 µM	6.25 ± 0.42 µM	
B1			19.87 ± 5.96 µM
B2			10.05 ± 4.02 µM
